In patent publication US20090022757A1, “Method for treating photoreceptor cell degeneration” (priority 2007, published 2009):

How the values were obtained:
[1] = tested on: MNU-induced retinal photoreceptor cell degeneration; assay: Electroretinogram of rats with MNU-induced retinal photoreceptor cell degeneration treated with GLS oil and/or DHA; type: in vivo, Sprague Dawley rats; design: a-Wave Amplitude / b-Wave Amplitude: unit not given here; details: MNU 40 mg/kg i.p.
Protocol: Animals and grouping: One hundred and five 50-day-old Sprague Dawley rats were used in the experiment. Twenty-five rats were selected randomly as the normal control (receiving an excipient via gastric gavage). Eighty rats were used for establishing the photoreceptor cell degeneration model and were treated by intraperitoneal injection with a single dose of MNU at 40 mg/kg. The MNU-injected rats were randomly divided into four experimental groups:
(1) GLS oil treatment group (receiving GSL oil and an excipient via gastric gavage);
(2) GLS oil+DHA treatment group (receiving GSL oil, DHA, and an excipient via gastric gavage);
(3) DHA control group (receiving DHA and an excipient via gastric gavage;
(4) Model control group (receiving an excipient via gastric gavage).
The excipient used in this experiment is hydroxypropyl methyl cellulose. The treatment started three days before the administration of MNU (day-3). Each animal in Groups 1-3 received a daily gastric feeding of GSL oil only, GSL oil and DHA (2 mg/kg), or DHA (2 mg/kg) only, in 1 ml 0.5% hydroxypropyl methyl cellulose. Animals in Group 4 received 1 ml 0.5% hydroxypropyl methyl cellulose.
Electroretinogram examination: The pupils of rats were dilated as described in Example 1. The electroretinogram examinations were conducted under the following conditions:
A Neuropack II electrophysiological analyzer was employed to measure the visual electrophysiology.

[2] = tested on: MNU-induced retinal photoreceptor cell degeneration; assay: Pathological examination of MNU-induced retinal photoreceptor cell damage in rats treated with GLS oil and/or DHA; details: MNU 40 mg/kg i.p., damage score
[3] = daily gastric gavage from day -3, day 1
[4] = daily gastric gavage from day -3, day 3
[5] = daily gastric gavage from day -3, day 5
[6] = daily gastric gavage from day -3, day 7
[7] = daily gastric gavage from day -3, day 10

CC/C=C\C/C=C\C/C=C\C/C=C\C/C=C\C/C=C\CCC(=O)O [DHA, Docosahexaenoic acid]
a-Wave Amplitude [1, 3]: 18.43 ± 17.94 | a-Wave Latent Period [1, 3]: 10.35 ± 9.02 | b-Wave Amplitude [1, 3]: 56.90 ± 61.16 | b-Wave Latent Period [1, 3]: 43.92 ± 38.08 | a-Wave Amplitude [1, 4]: 14.13 ± 15.71 | a-Wave Latent Period [1, 4]: 8.64 ± 9.91 | b-Wave Amplitude [1, 4]: 59.43 ± 65.22 | b-Wave Latent Period [1, 4]: 35.10 ± 37.34 | a-Wave Amplitude [1, 5]: 10.27 ± 11.15 | a-Wave Latent Period [1, 5]: 8.30 ± 8.81 | b-Wave Amplitude [1, 5]: 47.85 ± 52.05 | b-Wave Latent Period [1, 5]: 34.92 ± 36.97 | a-Wave Amplitude [1, 6]: 16.61 ± 18.95 | a-Wave Latent Period [1, 6]: 9.01 ± 9.56 | b-Wave Amplitude [1, 6]: 53.93 ± 58.06 | b-Wave Latent Period [1, 6]: 36.24 ± 38.45 | a-Wave Amplitude [1, 7]: 19.70 ± 17.97 | a-Wave Latent Period [1, 7]: 10.42 ± 9.10 | b-Wave Amplitude [1, 7]: 64.71 ± 57.60 | b-Wave Latent Period [1, 7]: 43.23 ± 37.88 | Number of Eyes with extinguished electroretinogram ([1]; n = 10, day 3): 5 | Number of Eyes with extinguished electroretinogram ([1]; n = 10, day 5): 5 | Number of Eyes with extinguished electroretinogram ([1]; n = 10, day 7): 5 | Number of Eyes with extinguished electroretinogram ([1]; n = 10, day 10): 4 | Number of Eyes with extinguished electroretinogram ([1]; n = 10, day 11): 4 | The Damage Degree of the Retinal Photoreceptor Cell Pathology ([2]; day 1): 1.40 ± 0.52 | The Damage Degree of the Retinal Photoreceptor Cell Pathology ([2]; day 3): 2.2 ± 1.32 | The Damage Degree of the Retinal Photoreceptor Cell Pathology ([2]; day 5): 2.9 ± 2.85 | The Damage Degree of the Retinal Photoreceptor Cell Pathology ([2]; day 7): 2.80 ± 2.97 | The Damage Degree of the Retinal Photoreceptor Cell Pathology ([2]; day 10): 2.60 ± 2.95
